Four molecules from paper PMC4472604 (ACS chemical neuroscience, 2015) can be followed below.

In experiment [1] the target is T1, DOR (Mus musculus, UniProt P32300). Put plainly: Competition binding against [125I]-3.
Experiment [2] deals with MOR (Mus musculus, UniProt P42866). Description: Competition binding against [125I]BNtxA in MOR-CHO membranes.
In experiment [3] the target is KOR (Mus musculus, UniProt P33534). Put plainly: Competition binding against [125I]BNtxA in KOR-CHO membranes.
For experiment [4], the target named is 6TM/E11 sites (Mus musculus, UniProt P42866). The class given is binding.
In experiment [5] the target is T1, DOR. Put plainly: [125I]-3 saturation binding in DOR-CHO membranes. To be noted: mean ± SEM.

Consider `Oc1ccc2c3c1O[C@H]1c4oc5ccccc5c4C[C@@]4(O)[C@@H](C2)N(CC2CC2)CC[C@]314` [Naltriben], for which the Ki in experiment [1] was 0.14 ± 0.04 nM.

Take `Oc1ccc2c3c1O[C@H]1c4[nH]c5ccccc5c4C[C@@]4(O)[C@@H](C2)N(CC2CC2)CC[C@]314` [Naltrindole]: the Ki in experiment [1] was 0.79 ± 0.16 nM.

As to `CC(C)[C@H](NC(=O)[C@H](CCC(=O)O)NC(=O)[C@H](Cc1ccccc1)NC(=O)[C@@H](C)NC(=O)[C@@H](N)Cc1ccc(O)cc1)C(=O)N[C@H](C(=O)NCC(N)=O)C(C)C` [[D-Ala^2]deltorphin II, Tyr-D-Ala-Phe-Glu-Val-Val-Gly-NH2], the Ki in experiment [2], in experiment [3] and in experiment [4] was greater than 1000 nM throughout.

Turning to “Tyr-D-Ala-(p-^125I)Phe-Glu-Ile-Ile-Gly-NH2 [[^125I]-3]”, the Bmax in experiment [5] worked out at 196.97 ± 12.44 fmol/mg.
